# Experimental data as given in patent US9550742B2, “11-OXO-10,11-dihydrodibenzo[B,F][1,4]thiazepine S-oxide derivatives and their use as dopamine D2 receptor antagonists” (The United States of America, as Represented by the …, priority 2013, dated 2017).
# Like-named read-outs stand apart in the source and are kept apart here.
# Experiments:
# [1] = target: T1, D2 DAR (Homo sapiens, UniProt P14416); test: D2 Ca^2+ screen assay (calcium accumulation, HEK293 T-REx with Gqi5); type: cell-based
# T1 construct: expressed in transfected cells; host or cells: HEK293 T-REx, Tet-inducible, with chimeric G-protein Gqi5
# Method: The resting concentration of calcium ions (Ca^2+) in the cells' cytoplasm is normally maintained in the range of 10-100 nM. To maintain this low concentration, Ca^2+ is actively pumped from the cytosol to the extracellular space and into the endoplasmic reticulum (ER), and sometimes into the mitochondria. Signaling occurs when the cell is stimulated to release Ca^2+ from intracellular stores. The most common signaling pathway that increases cytoplasmic calcium concentration is the phospholipase C (PLC) pathway. […] IP3 diffuses to the ER, binds to its receptor (IP3 receptor), which is a Ca^2+ channel and, thus, releases Ca^2+ from the ER to the cytosol. To measure this cytosolic Ca^2+ accumulation, we used the Screen Quest™ Fluo-8 Calcium Assay Kit (AAT Bioquest, Sunnyvale, Calif.). Acetoxymethyl (AM) esters bound to Fluo-8™ dye are non-polar molecules that easily cross live cell membranes transporting the dye inside the cell, and are then rapidly hydrolyzed by cellular esterases inside live cells. As Fluo-8™ is freed from AM esters, it binds to Ca^2+ and emits a fluorescent signal at 514 nm that escalates with increasing cytosolic Ca^2±. To measure this calcium flux signal, we used the Functional Drug Screening System (FDSS) (Hamamatsu, Japan), a high throughput screening device that allows optical detection of signal transmissions within living cells in a time-resolving fashion. […] Quest Fluo-8™ calcium reagent was freshly prepared prior to adding to the cells (lyophilized Fluo-8™ dye provided with the kit was re-suspended in 200 μL DMSO as a 500× stock and stored at −20° C.). 2 μL/well of Quest Fluo-8™ calcium dye diluted in HBSS +10 mM HEPES buffer (for every 10 mL buffer, 1 mL of 10× quencher provided in the kit and 20 μL of 500×DMSO stock dye were added) was added to cells with a Multi-Drop Combi (ThermoScientific) and incubated for 45-90 min in the dark at ambient temperature. Then, the plates were introduced into the FDSS where they were pinned with 23 nL of test compound or dopamine controls and were read by FDSS in non-stimulated mode for 180 sec for detection of agonists. […]
# [2] = target: T2, D2 GPCR receptor (DAR) (Homo sapiens, UniProt P14416); test: D2 beta-arrestin functional assay (PathHunter, CHO); type: cell-based; settings: for D3/D2 beta-arrestin IC50ratio: ratio of D3 (Example 4) to D2 (Example 2) beta arrestin assay
# T2 construct: host or cells: CHO PathHunter β-arrestin cells
# Text: For a secondary-screen and selectivity assays, DAR PathHunter® β-arrestin GPCR cell lines from DiscoveRx (Fremont, Calif.). In this) were used. In the D2 Receptor PathHunter® β-arrestin GPCR cell line, the D2 GPCR receptor (DAR) is overexpressed and fused with a small 42-amino acid fragment of β-galactosidase called ProLink™ on a CHO cellular background expressing a fusion protein of β-arrestin and a larger N-terminal deletion mutant of β-galactosidase (“enzyme acceptor”). When DAR is activated by dopamine, it stimulates binding of β-arrestin to the ProLink-tagged DAR and the two complementary parts of β-galactosidase form a functional enzyme. When substrate (PathHunter® Detection reagent) is added, β-galactosidase hydrolyzes it and generates a chemiluminescent signal.
# D2 Receptor PathHunter® β-arrestin cells were seeded at 2,100 cells/well in 3 μL/well media (DiscoveRx Plating Reagent 2) with MultiDrop Combi dispenser (Thermo Scientific, Logan, Utah) onto white tissue culture treated 1,536-well Aurora plates (Brooks Automation, Chelmsford, Mass.) and allowed to attach overnight at 37° C., 5% CO2. Next, 23 nL/well of compound solutions in DMSO were added with a pintool transfer (Kalypsis, San Diego, Calif.). The cells were stimulated by compounds for 90 min at 37° C., 5% CO2, after which 1.5 μL/well of DiscoveRx detection reagent was added with BioRAPTR FRD dispenser. The detection reagent was prepared by mixing of Galacton Star Substrate, Emerald II solution and PathHunter buffer (supplied by the assay kit) together at a 1:5:19 proportion just prior to dispensing. The plates were incubated at ambient temperature for 1 hr, and the luminescent signal was read on a ViewLux plate reader (PerkinElmer, Waltham, Mass.).
# [3] = target: D3 dopamine receptor (DAR) (Homo sapiens, UniProt P35462); test: D3 beta-arrestin functional assay (PathHunter, CHO); type: cell-based; settings: dose response curve; read-out: D3 β-arrestin assay AC50
# Text: A CHO cell line was engineered to overexpress D3 dopamine receptor (DAR) and fused with a small 42-amino acid fragment of β-gal called ProLink™. In addition, these cells stably express a fusion protein of β-arrestin and a larger N-terminal deletion mutant of β-galactosidase (“enzyme acceptor”). When DAR is activated by dopamine, it stimulates binding of β-arrestin to ProLink-tagged DARs, and the two complementary parts of β-galactosidase form a functional enzyme. When substrate (PathHunter® Detection reagent) is added, βgalactosidase hydrolyzes it and generates a chemiluminescent signal.
# For the 1,536-well assay, D3 PathHunter® β-arrestin cells were seeded at 2,100 cells/well in 3 μL/well media (DiscoveRx Plating Reagent 2) with MultiDrop Combi dispenser (Thermo Scientific, Logan, Utah) onto white tissue culture treated 1,536-well Aurora plates (Brooks Automation, Chelmsford, Mass.) and allowed to attach overnight at 37° C., 5% CO2. Next, 23 nL/well of compound solutions in DMSO were added with a pintool transfer (Kalypsis, San Diego, Calif.). The cells were stimulated by compounds for 90 minutes at 37° C., 5% CO2, after which 1.5 μL/well of DiscoveRx detection reagent was added with BioRAPTR FRD dispenser. […] The plates were incubated at ambient temperature for 1 h, and the luminescent signal was read on ViewLux plate reader (PerkinElmer, Waltham, Mass.).
# [4] = target: D2L human dopamine receptors (Homo sapiens, UniProt P14416); test: D2 binding assay ([^3H]methylspiperone, HEK membranes); settings: for D3/D2 binding Ki ratio: ratio of D3 (Example 5) to D2 (Example 3) binding assay
# Method: Compounds were tested for differences in affinity between three dopamine receptor subtypes using radio-labeled ligand binding assays. The first assay determined the Ki value of the compounds for the D2 DAR subtype using stable HEK cell lines expressing the D2L human dopamine receptors (Codex Biosciences, Gaithersburg, Md.). Cells were cultured in Dulbecco's modified Eagle's Medium containing 10% FBS, 1,000 units/mL Penicillin, 1,000 mg/mL Streptomycin, 100 mM Sodium Pyruvate, 1 μg/mL Gentamicin, and […] G418. All cells were maintained at 37° C. in 5% CO2 and 90% humidity. For radioligand binding assays, cells were removed mechanically using calcium and magnesium-free Earle's Balanced Salt Solution (EBSS(−)). Intact cells were collected by centrifugation and then lysed with 5 mM Tris-HCl and 5 mM MgCl2 at pH 7.4 in a glass homogenizer. Homogenates were centrifuged at 20,000×g for 30 minutes. The membranes were re-suspended in EBSS (pH 7.4) and protein concentration was determined using a Bradford assay according to the manufacturer's recommendations (Bio-Rad). Membranes were diluted to 24 mg/mL. […] Membrane preparations were incubated for 90 min at room temperature with various concentrations of radioligand in a reaction volume of 250 μL EBSS containing 200 mM sodium metabisulfite. Non-specific binding was determined in the presence of 4 μM (+)-butaclamol. Bound ligand was separated from unbound by filtration through GF/C filters using a PerkinElmer cell harvester with ice cold EBSS (4 washes) and quantified on a Top-count (PerkinElmer) after addition of scintillation solution. […] In order to determine the affinity of a given compound for a receptor type, competition-binding assays were performed. […] Reactions were incubated, terminated, and quantified as indicated above.
# [5] = target: D3 human dopamine receptors (Homo sapiens, UniProt P35462); test: D3 binding assay ([^3H]methylspiperone, HEK293 membranes)
# Method: Cells were cultured in Dulbecco's modified Eagle's Medium containing 10% FBS, 1,000 units/mL Penicillin, 1,000 mg/mL Streptomycin, 100 mM Sodium Pyruvate, 1 μg/mL Gentamicin, and […] G418. All cells were maintained at 37° C. in 5% CO2 and 90% humidity. For radioligand binding assays, cells were removed mechanically using calcium and magnesium-free Earle's Balanced Salt Solution (EBSS(−)). Intact cells were collected by centrifugation and then lysed with 5 mM Tris-HCl and 5 mM MgCl2 at pH 7.4 in a glass homogenizer. […] Membrane preparations were incubated for 90 min at room temperature with various concentrations of radioligand in a reaction volume of 250 μL EBSS containing 200 mM sodium metabisulfite. […] Bound ligand was separated from unbound by filtration through GF/C filters using a PerkinElmer cell harvester with ice cold EBSS (4 washes) and quantified on a Top-count (PerkinElmer) after addition of scintillation solution. […] In order to determine the affinity of a given compound for a receptor type, competition-binding assays were performed. […] Reactions were incubated, terminated, and quantified as indicated above.
# [6] = dopamine D2 calcium release assay of Example 1, read-out: Ca^2+ AC50
# T1 sequence (P14416 whole entry): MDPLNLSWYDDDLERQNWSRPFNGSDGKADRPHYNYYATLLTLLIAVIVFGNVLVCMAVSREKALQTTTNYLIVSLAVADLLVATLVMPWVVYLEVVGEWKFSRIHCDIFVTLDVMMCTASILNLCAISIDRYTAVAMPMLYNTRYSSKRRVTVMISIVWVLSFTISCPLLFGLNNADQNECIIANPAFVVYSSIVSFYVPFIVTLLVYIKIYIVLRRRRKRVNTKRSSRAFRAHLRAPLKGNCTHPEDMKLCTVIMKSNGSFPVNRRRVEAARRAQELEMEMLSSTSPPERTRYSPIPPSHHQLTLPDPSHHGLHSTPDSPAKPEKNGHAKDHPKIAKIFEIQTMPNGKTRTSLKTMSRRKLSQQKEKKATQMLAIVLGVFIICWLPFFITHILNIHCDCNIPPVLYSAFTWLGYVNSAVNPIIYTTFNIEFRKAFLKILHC
# T2 sequence (P14416 whole entry): as above
# D2L human dopamine receptors, sequence (P14416 whole entry): as above
# D3 human dopamine receptors, sequence (P35462 whole entry): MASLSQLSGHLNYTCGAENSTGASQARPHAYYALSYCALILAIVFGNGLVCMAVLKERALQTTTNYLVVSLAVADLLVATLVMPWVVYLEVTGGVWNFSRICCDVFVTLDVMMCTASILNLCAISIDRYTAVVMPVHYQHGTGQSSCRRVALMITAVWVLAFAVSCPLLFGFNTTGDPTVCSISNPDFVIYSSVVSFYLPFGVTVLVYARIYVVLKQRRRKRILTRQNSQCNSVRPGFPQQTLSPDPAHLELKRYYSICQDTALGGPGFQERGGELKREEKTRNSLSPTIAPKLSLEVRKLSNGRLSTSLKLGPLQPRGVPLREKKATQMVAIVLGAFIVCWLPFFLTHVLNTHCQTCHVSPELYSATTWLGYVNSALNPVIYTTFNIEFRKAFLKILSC
# D3 dopamine receptor (DAR), sequence (P35462 whole entry): as above
SMILES,"AC50 [1, 6] [µM]","AC50 ([1]; dose response curve, read-out: D2 Ca^2+ assay AC50) [µM]","AC50 ([2]; dose response curve, read-out: D2 β-arrestin assay AC50) [µM]",D3/D2 beta-arrestin IC50ratio [2],AC50 [3] [µM],Ki [4] [µM],D3/D2 binding Ki ratio [4],Ki [5] [µM]
"CCN1C(=O)c2ccccc2[S+]([O-])c2ccc(C(=O)NCc3ccc(OC)cc3)cc21 (centres unmarked) [Compound 1, 10-Ethyl-N-(4-methoxybenzyl)-11-oxo-10,11-dihydrodibenzo[b,f][1,4]thiazepine-8-carboxamide 5-oxide]",< 1,0.281,2.89,2.0,5.76,0.08,6.0,0.48
"CCN1C(=O)c2ccccc2[S@+]([O-])c2ccc(C(=O)N[C@H](C)c3ccc(Br)cc3)cc21 [Compound 49, (R)-N-(1-(4-Bromophenyl)ethyl)-10-ethyl-11-oxo-10,11-dihydrodibenzo[b,f][1,4]thiazepine-8-carboxamide 5-(S)-oxide]",< 1,,,7.1,,,1.3,
"CCN1C(=O)c2ccccc2[S@+]([O-])c2ccc(C(=O)N[C@H](C)c3ccc4ccccc4c3)cc21 [Compound 50, (R)-10-Ethyl-N-(1-(naphthalen-2-yl)ethyl)-11-oxo-10,11-dihydrodibenzo[b,f][1,4]thiazepine-8-carboxamide 5-(S)-oxide]",< 1,,,11.2,,,16.2,
"CN1C(=O)c2ccccc2[S@+]([O-])c2ccc(C(=O)NCc3ccc(Br)cc3)cc21 [Compound 52, N-(4-bromobenzyl)-10-methyl-11-oxo-10,11-dihydrodibenzo[b,f][1,4]thiazepine-8-carboxamide 5-(S)-oxide]",< 1,,,4.6,,,1.5,
"CN1C(=O)c2ccccc2[S@+]([O-])c2ccc(C(=O)NCc3cccnc3)cc21 [Compound 53, 10-Methyl-11-oxo-N-(pyridin-3-ylmethyl)-10,11-dihydrodibenzo[b,f][1,4]thiazepine-8-carboxamide 5-(S)-oxide]",< 1,,,5.0,,,70.0,
"CN1C(=O)c2ccccc2[S@+]([O-])c2ccc(C(=O)NCCN3CCCC3)cc21 [Compound 54, 10-Methyl-11-oxo-N-(2-(pyrrolidin-1-yl)ethyl)-10,11-dihydrodibenzo[b,f][1,4]thiazepine-8-carboxamide 5-(S)-oxide]",< 1,,,7.2,,,1.7,
